Values of other authors in patent publication US4112071A, “Antibiotic complex” (priority 1977, dated 1978).

Legend:
[1] = system: animal and human cancers; conditions: Cancer Chemother. Rep., Part 1, 58, 255 (1974)
[2] = system: several animal tumor systems; conditions: J. Antibiotics, April 1974, 254-259

SMILES: CC(=O)[C@]1(O)Cc2c(O)c3c(c(O)c2[C@@H](O[C@H]2C[C@H](N)[C@H](O)[C@H](C)O2)C1)C(=O)c1c(O)cccc1C3=O [carminomycin I]
- antitumor activity in a variety of animal and human cancers [1]: promising antitumor activity
- activity against several animal tumor systems [2]: active
